Laboratory results taken from patent publication US6737383B1, “Herbicidal oxadiazolidines” (priority 1999, dated 2004).

Key:
bedstraw = assay: Test B pre/postemergence bedstraw; format: in vivo, Galium aparine
Summary of the method: (§1)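 Herbicidal effect was estimated by eye on a ten-point control scale after plants spent twelve to sixteen days in a greenhouse following soil or foliar treatment. Foliar sprays targeted plants at one to four leaves; all doses were formulated in a non-phytotoxic solvent with surfactant.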

blackgrass [1] = assay: Test B pre/postemergence blackgrass; format: in vivo, Alopecurus myosuroides
Summary of the method: as §1

soybean = assay: Test B pre/postemergence soybean; format: in vivo, Glycine max
Summary of the method: as §1

velvetleaf = assay: Test B pre/postemergence velvetleaf; format: in vivo, Abutilon theophrasti
Summary of the method: as §1

Alexandergrass = assay: Test D Alexandergrass; format: in vivo, Brachiaria plantaginea; settings: Preemergence, 0 to 100 scale
Summary of the method: (§2)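 Seeds were sown in greenhouse pots, one species per pot or compartment. Compounds were in a non-phytotoxic solvent mixture with surfactant; preemergence applications went on the sandy loam surface within one day of planting. Injury was rated visually after 14 to 21 days, 0 (none) to 100 (complete control).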

Johnson grass = assay: Test D Johnson grass; format: in vivo, Sorghum halepense; settings: Preemergence, 0 to 100 scale
Summary of the method: as §2

purple nutsedge = assay: Test D purple nutsedge; format: in vivo, Cyperus rotundus; settings: Preemergence, 0 to 100 scale
Summary of the method: as §2

winter wheat [2] = assay: Test E winter wheat; format: in vivo, Triticum aestivum; settings: Postemergence, 0 to 100 scale
Summary of the method: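 Compounds formulated in non-phytotoxic solvent mixture with surfactant; for postemergence, sprayed on plants at 1- to 4-leaf stage grown in 60:40 sandy loam/greenhouse potting mix. Kept in greenhouse ~21 to 28 days, then visually rated against untreated controls.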

blackgrass [3] = assay: Test E blackgrass; format: in vivo, Alopecurus myosuroides; settings: Preemergence
green foxtail = assay: Test E green foxtail; format: in vivo, Setaria viridis; settings: Preemergence
Italian ryegrass = assay: Test E Italian ryegrass; format: in vivo, Lolium multiflorum; settings: Preemergence
winter wheat [4] = assay: Test E winter wheat; format: in vivo, Triticum aestivum; settings: Preemergence
wild oat = assay: Test E wild oat; format: in vivo, Avena fatua; settings: Preemergence
winter barley = assay: Test E winter barley; format: in vivo, Hordeum vulgare; settings: Preemergence
[5] = Postemergence, Rate 125 g/ha, scale of 0 to 10 where 0 is no effect and 10 is complete control
[6] = Preemergence, Rate 62 g/ha, scale of 0 to 10 where 0 is no effect and 10 is complete control
[7] = Preemergence, Rate 125 g/ha, 0 is no effect, 10 is complete control
[8] = Preemergence, Rate 250 g/ha, scale 0 to 10, 0 is no effect, 10 is complete control
[9] = Preemergence, Rate 500 g/ha, scale 0 to 10 (0 no effect, 10 complete control)
[10] = Rate 62 g/ha, Postemergence, scale of 0 to 10 where 0 is no effect and 10 is complete control
[11] = Rate 250 g/ha, Postemergence, scale 0 to 10, 0 is no effect, 10 is complete control
[12] = Rate 500 g/ha, Postemergence, scale 0 to 10
[13] = Rate 16 g/ha, 0 no injury, 100 complete control
[14] = Rate 32 g/ha, 0 no injury, 100 complete control
[15] = Rate 64 g/ha, 0 no injury, 100 complete control
[16] = Rate 125 g/ha, 0 no injury, 100 complete control
[17] = Rate 62 g/ha, 0 to 100 scale, 0 no effect, 100 complete control
[18] = Rate 125 g/ha, 0 to 100 scale (0 no effect, 100 complete control)

`CC(C)N(C(=O)n1oc(=O)n(N(C)C)c1=O)c1ccc(F)cc1` [Compound 170] was tested, and the “Bedstraw plant response rating” value (bedstraw; [5]) was 0, the “Bedstraw plant response rating” value (bedstraw; [6]) was 0 and the “Bedstraw plant response rating (0 to 10 scale)” value (bedstraw; [7]) was 0. For the same molecule, the “Bedstraw plant response rating” value (bedstraw; [8]) was 6, the “Bedstraw plant response rating” value (bedstraw; [9]) was 9 and the “Bedstraw plant response rating” value (bedstraw; [10]) was 0. The “Plant response rating, Bedstraw” value (bedstraw; [11]) was 0, the “Bedstraw plant response rating” value (bedstraw; [12]) was 2 and the “Blackgrass plant response rating” value (blackgrass [1]; [5]) was 9. For the same molecule, the “Blackgrass plant response rating” value (blackgrass [1]; [6]) was 10, the “Blackgrass plant response rating (0 to 10 scale)” value (blackgrass [1]; [7]) was 10 and the “Blackgrass plant response rating” value (blackgrass [1]; [8]) was 10. The “Blackgrass plant response rating” value (blackgrass [1]; [9]) was 10, the “Blackgrass plant response rating” value (blackgrass [1]; [10]) was 9 and the “Plant response rating, Blackgrass” value (blackgrass [1]; [11]) was 9. The “Blackgrass plant response rating” value (blackgrass [1]; [12]) was 9, the “Soybean plant response rating” value (soybean; [5]) was 3 and the “Soybean plant response rating” value (soybean; [6]) was 0. For the same molecule, the “Soybean plant response rating (0 to 10 scale)” value (soybean; [7]) was 1, the “Soybean plant response rating” value (soybean; [8]) was 4 and the “Soybean plant response rating” value (soybean; [9]) was 9. The “Soybean plant response rating” value (soybean; [10]) was 2, the “Plant response rating, Soybean” value (soybean; [11]) was 4 and the “Soybean plant response rating” value (soybean; [12]) was 7. For the same molecule, the “Velvetleaf plant response rating” value (velvetleaf; [6]) was 3, the “Velvetleaf plant response rating (0 to 10 scale)” value (velvetleaf; [7]) was 7 and the “Velvetleaf plant response rating” value (velvetleaf; [8]) was 10. The “Velvetleaf plant response rating” value (velvetleaf; [9]) was 10, the “Plant response rating, Velvetleaf” value (velvetleaf; [11]) was 5 and the “Velvetleaf plant response rating” value (velvetleaf; [12]) was 5. The “Plant response rating, Alexandergrass” value (Alexandergrass; [13]) was 20, the “Plant response rating, Alexandergrass” value (Alexandergrass; [14]) was 20 and the “Plant response rating, Alexandergrass” value (Alexandergrass; [15]) was 30. For the same molecule, the “Plant response rating, Alexandergrass” value (Alexandergrass; [16]) was 85, the “Plant response rating, Alexandergrass” value (Alexandergrass; Rate 250 g/ha) was 98 and the “Plant response rating, Alexandergrass” value (Alexandergrass; Rate 500 g/ha) was 100. For the same molecule, the “Plant response rating, Johnsongrass” value (Johnson grass; [13]) was 0, the “Plant response rating, Johnsongrass” value (Johnson grass; [14]) was 0 and the “Plant response rating, Johnsongrass” value (Johnson grass; [15]) was 0. For the same molecule, the “Plant response rating, Johnsongrass” value (Johnson grass; [16]) was 75, the “Plant response rating, Johnsongrass” value (Johnson grass; Rate 250 g/ha) was 100 and the “Plant response rating, Johnsongrass” value (Johnson grass; Rate 500 g/ha) was 95. The “Plant response rating, Purple nutsedge” value (purple nutsedge; [13]) was 0, the “Plant response rating, Purple nutsedge” value (purple nutsedge; [14]) was 0 and the “Purple nutsedge plant response rating” value (purple nutsedge; [15]) was 0. For the same molecule, the “Purple nutsedge plant response rating” value (purple nutsedge; [16]) was 0, the “Plant response rating, Purple nutsedge” value (purple nutsedge; Rate 250 g/ha) was 65 and the “Plant response rating, Purple nutsedge” value (purple nutsedge; Rate 500 g/ha) was 65. For the same molecule, the “Plant response rating, Wheat (winter)” value (winter wheat [2]; Rate 62 g/ha) was 80, the “Plant response rating, Wheat (winter)” value (winter wheat [2]; Rate 125 g/ha) was 75 and the “Plant response rating, Blackgrass” value (blackgrass [3]; [17]) was 60. For the same molecule, the “Plant response rating, Blackgrass” value (blackgrass [3]; [18]) was 60, the “Blackgrass plant response rating (0 to 100 scale)” value (blackgrass [3]; Rate 250 g/ha) was 85 and the “Plant response rating, Green foxtail” value (green foxtail; [17]) was 100. For the same molecule, the “Plant response rating, Green foxtail” value (green foxtail; [18]) was 100, the “Green foxtail plant response rating (0 to 100 scale)” value (green foxtail; Rate 250 g/ha) was 100 and the “Plant response rating, I. Ryegrass” value (Italian ryegrass; [17]) was 60. The “Plant response rating, I. Ryegrass” value (Italian ryegrass; [18]) was 70, the “I. Ryegrass plant response rating (0 to 100 scale)” value (Italian ryegrass; Rate 250 g/ha) was 70 and the “Plant response rating, Wheat (winter)” value (winter wheat [4]; [17]) was 70. For the same molecule, the “Plant response rating, Wheat (winter)” value (winter wheat [4]; [18]) was 70, the “Wheat (winter) plant response rating (0 to 100 scale)” value (winter wheat [4]; Rate 250 g/ha) was 70 and the “Plant response rating, Wild oat” value (wild oat; [17]) was 65. For the same molecule, the “Plant response rating, Wild oat” value (wild oat; [18]) was 70, the “Wild oat plant response rating (0 to 100 scale)” value (wild oat; Rate 250 g/ha) was 70 and the “Plant response rating, Barley (winter)” value (winter barley; [17]) was 60. The “Plant response rating, Barley (winter)” value (winter barley; [18]) was 60 and the “Barley (winter) plant response rating (0 to 100 scale)” value (winter barley; Rate 250 g/ha) was 70.
